The series is described as follows: CellTiter-Glo Luminescent Cell Viability Assay. Particulars: Chinese hamster, CHO cells (non-tumor), CHO cells, 10^−6 M. The class given is cell-based, Chinese hamster. Here is the method: Given their potent antiproliferative effects on tumor cells, two conjugates were selected for testing on non-tumor CHO cells to investigate their selectivity. […] Cell viability of non-tumor CHO cells was assessed using the CellTiter-Glo Luminescent Cell Viability Assay (Promega, Madison, WI, USA), following treatment with 3a and 3f. Stock solutions (10 mM in DMSO) were stored frozen until use. CHO cells were cultured in complete DMEM (low glucose, 1 g/L) supplemented with 10% fetal bovine serum, 1% GlutaMAX-I, 1% non-essential amino acids, and 0.1% penicillin–streptomycin. Cells were seeded into opaque 96-well plates (5000 cells/100 µL/well), with peripheral wells filled with sterile PBS to minimize edge effects. After overnight incubation (37 °C, 5% CO2), cells were treated with increasing concentrations of the compounds (10^−5, 10^−6, and 10^−7 M) diluted in complete DMEM. Untreated cells served as controls, and complete DMEM was used to determine background luminescence. DMSO controls corresponding to the solvent concentrations of each treatment condition were also included; no significant effect on cell viability was observed. After 48 h, CellTiter-Glo reagent was added, and luminescence was measured using an EnSpire AlphaLisa microplate reader (Perkin Elmer). Relative light unit (RLU) values were normalized to untreated controls (100% viability). Non-linear regression analysis was performed in GraphPad Prism 8.0.1 to estimate IC50 values by fitting sigmoidal dose–response curves (log[inhibitor] vs. normalized response, variable slope).
(ATP-based viability assays read luminescence as a measure of living cells.)

By viability is commonly meant the share of living cells, or the viability signal relative to a control. The low end stands for more harm to the cells, the high end for less harm to the cells. The compound `COc1c(C)cc([P+](CCCCOc2cc(O)c3c(=O)cc(-c4ccccc4)oc3c2)(c2cc(C)c(OC)c(C)c2)c2cc(C)c(OC)c(C)c2)cc1C` [3f] yielded a viability at 48 h of 60.2 ± 2.9%.

For the origin of these results see PMC12652692, “Synthesis and In Vitro Anticancer Evaluation of Novel Phosphonium Derivatives of Chrysin” (International Journal of Molecular Sciences, 2025).
